What was measured:
[1] = tested on: H3122 cells; test: MTT assay, anti-proliferative effect in H3122 cells; format: cell-based, human; settings: Homo sapiens, NCI-H3122, 48 h treatment, read-out: IC50 to inhibit cell proliferation
Description: Therefore, D-DSePA was compared with un-deuterated DSePA for its anticancer activity in A549, H1975 and H3122 cell lines which are representative of NSCLC. For this, above cells were treated with the varying concentrations (0.1-100 μM) of DSePA/D-DSePA for 48 h and the cell viability was determined by MTT assay (FIG. 9A-C). The plot of percent (%) cytotoxicity (100-% viability) versus the concentration of DSePA/D-DSePA was used to estimate the half maximum concentration (IC50) of above compounds to inhibit the proliferation of cells. […] Employing these values, the therapeutic index (IC50 in normal lung cell/IC50 in lung cancer cell) of DSePA and D-DSePA in different pairs of normal versus cancerous cells (viz., A549/WI-38, A549/WI-26 VA4, H1975/WI-38, H1975/WI-26 VA4, H3122/WI-38 and H3122/WI-26 VA4) was calculated (Table-3). […]
MTT Assay—To evaluate the anti-proliferative effect of D-DScPA and DScPA, Cells (˜5×10^3) suspended in 100 μl of complete culture medium were seeded in each well of 96 well plates. […] The percentage (%) cytotoxicity was calculated from the decrease in absorbance at 570 nm of treated groups as compared to that of control group. […] The therapeutic index was calculated by normalizing the IC50 concentration of D-DSePA/DSePA in non-cancerous cells to that in cancerous cells.

[2] = tested on: WI-38 cells; test: Clonogenic assay in WI-38 cells; format: cell-based, human; settings: Homo sapiens, 168 h, seven days treatment, read-out: IC50 to inhibit growth (survival fraction)
Description: Further, clonogenic assay is considered as the gold standard method for evaluating the anticancer activity of any compound and is also a good indicator of the in vivo efficacy of any anticancer compound. Therefore, the therapeutic index of DSePA and D-DSePA in A549/WI-38 cells was also validated by employing the clonogenic assay. For this, A549/WI-38 cells were treated with the varying concentrations (0.1-2 μM)/(1-500 μM) of DSePA/D-DSePA for seven days and the survival fraction was calculated by counting the number of surviving clones (FIG. 11A). The plot of survival fraction verses the concentration of DScPA/D-DSCPA was used to estimate the IC50 of above compounds to inhibit the growth of A549/WI-38 cells. […] This clearly confirmed that deuteration of DScPA reduced its toxicity in normal cells without compromising its efficacy in cancer cells. […]
Clonogenic assay—Clonogenic assay was performed according to the method reported previously. […] After 7 days, colonies were fixed with absolute methanol for 5 min, stained with 0.5% crystal violet for 5 min, washed with distilled water to remove excess stain and counted manually under a stereo microscope. […] The plating efficiency and the survival fraction under irradiated and drug treated conditions were calculated using following formulae: […]
The plating efficiency of A549 and WI38 cells was calculated by seeding ˜300 and ˜500 cells respectively. […]

Work on `O=C(O)CC[Se][Se]CCC(=O)O` [DSePA, 3,3′-diselenodipropionic acid] yielded an IC50 [1] of 21.5 ± 1.2 µM and an IC50 [2] of 17.9 ± 0.01 µM.

From patent publication US20240208901A1, “Deuterated 3,3'-Diselenodipropionic Acid (DSePA) and Its Use as an Anticancer or Radioprotective Agent” (Secretary, Department of Atomic Energy, priority 2022, published 2024)
